This data set can be described thus: Liquid droplet spread area on a glass surface. The class given is physicochemical. The settings on record: 2 minutes after application of 50 μL of liquid to a glass surface.

Turning to `CCCCCC(F)(F)C(F)(F)C(F)(F)C(F)(F)F` [F4H5, F(CF2)4(CH2)5H], the “Liquid covered surface area” value is reported as 7.54 ± 0.33 cm^2.
The value for `CCCCCCCCC` [Nonane, reference compound] was 5.20 ± 0.18 cm^2; that for `FC1(F)C(F)(F)C(F)(F)C2(F)C(F)(F)C(F)(F)C(F)(F)C(F)(F)C2(F)C1(F)F` (stereo not shown) [Perfluorodecalin, reference compound] was 1.45 ± 0.02 cm^2.
The value for `CCCCCCCCC(F)(F)C(F)(F)C(F)(F)C(F)(F)C(F)(F)C(F)(F)F` [F6H8, F(CF2)6(CH2)8H] was 12.89 ± 0.94 cm^2.

The values are drawn from US12005033B2, “Compositions comprising mixtures of semifluorinated alkanes” (Novaliq GmbH, priority 2012, dated 2024).
